Read-outs that look alike come from different tables or passages of the source.
What was measured:
[1] = tested on: tumor metabolic activity (SUV); assay: Metabolic tumor response by 18[F]-FDG-PET; type: in vivo, human
Description: (§1) Pharmacodynamic markers were examined using peripheral blood samples, tumor and nevi biopsies (when available) and tumor imaging. BRAF mutation status was determined by Sanger sequencing. Pharmacodynamic markers analyzed, in available tumor/nevus samples obtained before treatment or archival tissue and during treatment on cycle 1, day 8 or day 15, including cytoplasmic p‐MEK, p‐ERK, BIM, c‐KIT, p‐AKT473, pS6 and PTEN, and nuclear p‐ERK, Ki‐67, PARP, cyclin D1, MITF, p27, and p53. Biomarker expression was determined by calculating the percentage of change in the H‐score (14) between on‐treatment and fresh/archival pretreatment specimens. Blood levels of VEGFR‐2 and were assessed before and at multiple time points while on treatment using enzyme‐linked immunosorbent assay (ELISA). […] Changes in standard uptake value (SUV) were determined by a blinded, independent central imaging review panel. Complete metabolic response (CMR) was complete resolution of tumor FDG‐PET uptake so SUV is the same as background. Partial metabolic response (PMR) decrease in sum of the tumor SUV of ≥25% from the baseline scan. Progressive metabolic disease (PMD) was defined as an increase in tumor SUV of ≥25% from the baseline scan, or the appearance of new FDG‐PET uptake in metastatic lesions. Stable metabolic disease (SMD) was defined as a change in tumor SUV between the PMR and PMD criteria.

Ki-67 = tested on: Ki-67
Description: as §1

[2] = tested on: soluble VEGFR-2 (sVEGFR-2); assay: Blood level by ELISA; type: in vivo, human; conditions: all dose levels, over time
Description: as §1

wild-type BRAF protein = conditions: read-out: EC50 for the wild-type BRAF protein; preclinical; cited from earlier work

SMILES: Cn1c(Nc2ccc(C(F)(F)F)cc2)nc2cc(Oc3ccnc(-c4ncc(C(F)(F)F)[nH]4)c3)ccc21 [RAF265]
- PMR, patients ([1]; BRAF WT disease, C1D15, 1 of 29): 3.4%
- PMR, patients ([1]; BRAF mutant tumors, C1D15, 8 of 33): 24.2%
- PMR, patients ([1]; BRAF-WT disease, C1D28, 3 of 28): 10.7%
- PMR, patients ([1]; BRAF-mutant tumors, C1D28, 8 of 28): 28.6%
- partial metabolic response (PMR), patients ([1]; C1D15, 10 of 65): 15.4%
- progressive metabolic disease (PMD), patients ([1]; C1D15, 65 patients): 13.8%
- stable metabolic disease (SMD), patients ([1]; C1D15, 65 patients): 70.8%
- partial metabolic response (PMR), patients ([1]; C1D28, 58 evaluable patients, all dose levels): 20.7%
- progressive metabolic disease (PMD), patients ([1]; C1D28, 58 patients): 17.2%
- stable metabolic disease (SMD), patients ([1]; C1D28, 58 patients): 62.1%
- patients with RECIST-defined responses who also had partial metabolic response ([1]; in vivo): Five of eight
- Ki67 % change vs pretreatment, Mean (SD) (Ki-67; All patients, n 23): -13.46 (50) %
- Ki67 % change vs pretreatment, Median (Ki-67; All patients, n 23): -11.1%
- Ki67 % change vs pretreatment, Mean (SD) (Ki-67; DL 5, n 2): 0%
- Ki67 % change vs pretreatment, Median (Ki-67; DL 5, n 2): 0%
- Ki67 decrease (Ki-67; DL 6): up to 51.8%
- Ki67 % change vs pretreatment, Mean (SD) (Ki-67; DL 6, n 6): -47.93 (40.8) %
- Ki67 % change vs pretreatment, Median (Ki-67; DL 6, n 6): -51.8%
- Ki67 % change vs pretreatment, Mean (SD) (Ki-67; DLs 1 - 4, n 11): +0.21 (59) %
- Ki67 % change vs pretreatment, Median (Ki-67; DLs 1 - 4, n 11): -11.1%
- Ki67 % change vs pretreatment, Mean (SD) (Ki-67; DLs 7 and 7.1, n 4): -6.08 (20) %
- Ki67 % change vs pretreatment, Median (Ki-67; DLs 7 and 7.1, n 4): -2.6%
- sVEGFR-2 levels [2]: significant decrease

From article PMC5548886 (Cancer Medicine, 2017)
